Experimental data from ChEMBL document CHEMBL4665820, “Discovery of VU6027459: A First-in-Class Selective and CNS Penetrant mGlu Positive Allosteric Modulator Tool Compound” (ACS Med Chem Lett, 2020).

Legend:
[1] = target: Adenosine receptor A1 (Homo sapiens) (UniProt P30542); assay: Displacement of [3H]-DPCPX from human recombinant adenosine A1 receptor at 10 uM after 60 mins by scintillation counting analysis relative to control
[2] = target: Adenosine receptor A2a (Homo sapiens) (UniProt P29274); assay: Displacement of [3H]-CGS 21680 from human recombinant adenosine A2A receptor at 10 uM after 120 mins by scintillation counting analysis relative to control
Sequence of Adenosine receptor A2a (Homo sapiens) (P29274 whole entry): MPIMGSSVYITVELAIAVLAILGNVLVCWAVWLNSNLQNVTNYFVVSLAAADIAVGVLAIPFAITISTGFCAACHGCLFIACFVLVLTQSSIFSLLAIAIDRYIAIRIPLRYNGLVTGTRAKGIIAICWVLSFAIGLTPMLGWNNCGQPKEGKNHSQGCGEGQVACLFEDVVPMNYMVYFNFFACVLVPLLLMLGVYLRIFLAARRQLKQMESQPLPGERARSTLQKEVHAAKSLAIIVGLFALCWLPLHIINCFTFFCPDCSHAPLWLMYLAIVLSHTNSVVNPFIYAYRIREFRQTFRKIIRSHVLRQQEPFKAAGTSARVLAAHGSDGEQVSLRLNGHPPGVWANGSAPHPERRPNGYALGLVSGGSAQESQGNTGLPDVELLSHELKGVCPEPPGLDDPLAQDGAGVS

[3] = target: Metabotropic glutamate receptor 7 (Rattus norvegicus) (UniProt P35400); assay: Positive allosteric modulation of rat mGlu7 receptor expressed in HEK293 cells co-expressing Gai5 assessed as potentiation of L-AP4-induced calcium mobilization preincubated for 140 secs and treated with EC20 L-AP4 for 125 secs and followed by subsequent addition of EC80 L-AP4 by Fluo-4-AM dye based fluorescence assay relative to maximal induction of L-AP4; format: functional, cell-based; settings: filed as positive allosteric modulator, time 140.0 sec
Sequence of Metabotropic glutamate receptor 7 (Rattus norvegicus) (P35400 whole entry): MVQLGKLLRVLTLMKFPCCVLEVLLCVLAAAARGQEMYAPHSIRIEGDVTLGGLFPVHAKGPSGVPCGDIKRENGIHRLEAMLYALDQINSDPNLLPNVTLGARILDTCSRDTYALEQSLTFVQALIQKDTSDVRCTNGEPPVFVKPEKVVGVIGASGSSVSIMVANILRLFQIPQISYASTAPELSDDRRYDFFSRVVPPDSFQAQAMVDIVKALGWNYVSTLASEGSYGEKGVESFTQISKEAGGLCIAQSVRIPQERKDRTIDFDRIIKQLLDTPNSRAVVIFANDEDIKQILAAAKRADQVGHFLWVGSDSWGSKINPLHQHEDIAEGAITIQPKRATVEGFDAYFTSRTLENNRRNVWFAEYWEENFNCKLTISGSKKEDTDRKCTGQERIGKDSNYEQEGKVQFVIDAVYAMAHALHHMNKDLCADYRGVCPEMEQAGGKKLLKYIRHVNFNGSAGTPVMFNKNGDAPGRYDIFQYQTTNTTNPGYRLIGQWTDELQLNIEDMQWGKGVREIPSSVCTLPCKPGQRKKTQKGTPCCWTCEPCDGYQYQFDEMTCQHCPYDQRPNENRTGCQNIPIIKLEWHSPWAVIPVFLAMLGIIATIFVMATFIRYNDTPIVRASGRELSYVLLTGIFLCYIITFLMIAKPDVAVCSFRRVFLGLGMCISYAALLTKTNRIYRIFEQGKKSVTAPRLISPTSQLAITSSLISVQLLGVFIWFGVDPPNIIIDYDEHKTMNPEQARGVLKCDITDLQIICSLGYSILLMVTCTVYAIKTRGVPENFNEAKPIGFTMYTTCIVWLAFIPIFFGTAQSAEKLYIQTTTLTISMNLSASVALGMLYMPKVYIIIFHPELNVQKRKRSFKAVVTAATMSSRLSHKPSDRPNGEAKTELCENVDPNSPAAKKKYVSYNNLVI

[4] = target: Metabotropic glutamate receptor 7 (Rattus norvegicus) (UniProt P35400); assay: Positive allosteric modulation of rat mGlu7 expressed in HEK293 cells co- expressing GIRK assessed as potentiation of L-AP4-induced thallium flux incubated for 140 sec by FluoZin2-AM dye based fluorescence analysis relative to maximal induction of L-AP4; format: cell-based; settings: filed as positive allosteric modulator
[5] = target: Alpha-1B adrenergic receptor (Homo sapiens) (UniProt P35368); assay: Displacement of [3H]-Prazosin from human recombinant adrenergic alpha 1B receptor at 10 uM incubated for 60 mins by scintillation counting analysis relative to control
[6] = target: Alpha-1D adrenergic receptor (Homo sapiens) (UniProt P25100); assay: Displacement of [3H]-Prazosin from human recombinant adrenergic alpha 1D receptor at 10 uM incubated for 60 mins by scintillation counting analysis relative to control
Sequence of Alpha-1D adrenergic receptor (Homo sapiens) (P25100 whole entry): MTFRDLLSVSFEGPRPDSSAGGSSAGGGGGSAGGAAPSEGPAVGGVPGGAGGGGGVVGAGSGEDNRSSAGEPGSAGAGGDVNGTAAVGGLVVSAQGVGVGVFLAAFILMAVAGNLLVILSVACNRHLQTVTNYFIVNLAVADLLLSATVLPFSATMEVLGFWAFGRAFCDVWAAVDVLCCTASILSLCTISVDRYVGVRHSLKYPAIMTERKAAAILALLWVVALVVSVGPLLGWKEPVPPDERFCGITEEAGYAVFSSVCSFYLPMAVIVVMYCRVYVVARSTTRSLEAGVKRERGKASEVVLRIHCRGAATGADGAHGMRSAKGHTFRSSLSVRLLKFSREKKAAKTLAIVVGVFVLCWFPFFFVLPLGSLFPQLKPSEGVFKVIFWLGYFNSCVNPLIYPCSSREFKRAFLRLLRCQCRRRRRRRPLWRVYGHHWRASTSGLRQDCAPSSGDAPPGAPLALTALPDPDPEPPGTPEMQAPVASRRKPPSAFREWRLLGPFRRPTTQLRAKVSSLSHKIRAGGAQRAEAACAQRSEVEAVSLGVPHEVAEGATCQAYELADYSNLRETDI

[7] = target: Alpha-2A adrenergic receptor (Homo sapiens) (UniProt P08913); assay: Displacement of [3H]-RX821002 from human recombinant adrenergic alpha 2A receptor at 10 uM incubated for 60 mins by scintillation counting analysis relative to control
[8] = target: Beta-2 adrenergic receptor (Homo sapiens) (UniProt P07550); assay: Displacement of [3H]-(-)CGP 12177 from human recombinant adrenergic beta 2 receptor at 10 uM incubated for 120 mins by scintillation counting analysis relative to control
Sequence of Beta-2 adrenergic receptor (Homo sapiens) (P07550 whole entry, looked up): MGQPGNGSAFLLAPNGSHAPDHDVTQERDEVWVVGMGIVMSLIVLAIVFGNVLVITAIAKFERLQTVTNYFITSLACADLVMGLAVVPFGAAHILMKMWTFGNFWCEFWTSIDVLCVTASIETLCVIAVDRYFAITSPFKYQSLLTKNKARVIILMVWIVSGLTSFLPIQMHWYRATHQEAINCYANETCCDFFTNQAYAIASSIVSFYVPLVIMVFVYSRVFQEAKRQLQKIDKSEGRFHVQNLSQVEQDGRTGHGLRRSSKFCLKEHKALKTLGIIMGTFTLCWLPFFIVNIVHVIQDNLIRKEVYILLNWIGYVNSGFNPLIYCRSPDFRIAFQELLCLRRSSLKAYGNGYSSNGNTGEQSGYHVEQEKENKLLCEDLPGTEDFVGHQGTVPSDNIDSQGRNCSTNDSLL

[9] = target: Androgen receptor (Homo sapiens) (UniProt P10275); assay: Displacement of [3H]-methyltrienolone from human androgen receptor at 10 uM incubated for 1440 mins by scintillation counting analysis relative to control
[10] = target: B1 bradykinin receptor (Homo sapiens) (UniProt P46663); assay: Displacement of [3H]desArg10-KD from human recombinant Bradykinin B1 receptor at 10 uM incubated for 120 mins by scintillation counting analysis relative to control
[11] = target: B2 bradykinin receptor (Homo sapiens) (UniProt P30411); assay: Displacement of [3H]bradykinin from human recombinant B2 receptor at 10 uM after 60 mins by scintillation counting analysis relative to control
Rattus norvegicus [12] = species: Rattus norvegicus; assay: Displacement of [3H]-Nitrendipine from L-type calcium channel dihydropyridine binding site in rat brain at 10 uM incubated for 90 mins by scintillation counting analysis relative to control; format: tissue-based
Rattus norvegicus [13] = species: Rattus norvegicus; assay: Displacement of [125I]-Omega -conotoxin GIVA from N-type calcium channel in rat brain membrane at 10 uM incubated for 30 mins by scintillation counting analysis relative to control; format: cell membranes
[14] = target: Cannabinoid receptor 1 (Homo sapiens) (UniProt P21554); assay: Displacement of [3H]-SR141716A from human recombinant full length Cannabinoid CB1 receptor at 10 uM incubated for 60 mins by scintillation counting analysis relative to control
[15] = target: D(2) dopamine receptor (Homo sapiens) (UniProt P14416); assay: Displacement of [3H]7-OH-DPAT from human recombinant dopamine D2S receptor at 10 uM after 60 mins by scintillation counting analysis relative to control
Sequence of D(2) dopamine receptor (Homo sapiens) (P14416 whole entry): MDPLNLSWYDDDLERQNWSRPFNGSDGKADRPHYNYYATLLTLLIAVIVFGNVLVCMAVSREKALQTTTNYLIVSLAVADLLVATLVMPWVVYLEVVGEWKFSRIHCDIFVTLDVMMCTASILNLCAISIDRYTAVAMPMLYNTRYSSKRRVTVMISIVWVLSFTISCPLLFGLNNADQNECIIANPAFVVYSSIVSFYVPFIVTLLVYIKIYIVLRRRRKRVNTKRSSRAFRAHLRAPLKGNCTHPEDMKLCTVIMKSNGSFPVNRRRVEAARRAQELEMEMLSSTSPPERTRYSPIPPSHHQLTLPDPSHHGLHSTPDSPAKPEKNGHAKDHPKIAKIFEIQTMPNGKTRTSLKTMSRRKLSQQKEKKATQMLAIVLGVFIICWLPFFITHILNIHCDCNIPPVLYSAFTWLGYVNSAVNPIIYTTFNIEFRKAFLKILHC

[16] = target: D(3) dopamine receptor (Homo sapiens) (UniProt P35462); assay: Displacement of [3H]-methyl-spiperone from human recombinant Dopamine D3 receptor at 10 uM incubated for 60 mins by scintillation counting analysis relative to control
Sequence of D(3) dopamine receptor (Homo sapiens) (P35462 whole entry): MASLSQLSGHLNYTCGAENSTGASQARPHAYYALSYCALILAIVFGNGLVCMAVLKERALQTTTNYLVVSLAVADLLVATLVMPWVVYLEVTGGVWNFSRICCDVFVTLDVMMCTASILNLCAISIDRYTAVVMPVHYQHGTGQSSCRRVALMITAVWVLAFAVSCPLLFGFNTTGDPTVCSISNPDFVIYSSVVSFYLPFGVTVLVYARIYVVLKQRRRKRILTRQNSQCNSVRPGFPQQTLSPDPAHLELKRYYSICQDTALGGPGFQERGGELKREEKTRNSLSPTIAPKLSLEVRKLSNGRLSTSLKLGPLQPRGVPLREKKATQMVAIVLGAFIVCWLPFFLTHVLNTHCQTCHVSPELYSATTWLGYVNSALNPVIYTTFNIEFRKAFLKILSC

CHO-K1 = assay: Inhibition of human recombinant full length Dopamine D4.2 receptor expressed in CHOK1 cells at 10 uM incubated for 30 mins by GTPgammaS assay relative to control; format: cell-based
[17] = target: Glutamate NMDA receptor (Rattus norvegicus) (UniProt P35439+Q00959+Q00960+Q00961+Q62645+Q8VHN2+Q9R1M7); assay: Displacement of [3H]-CGP39653 from NMDA glutamate receptor in rat at 10 uM incubated for 20 mins by scintillation counting analysis relative to control
[18] = target: Histamine H3 receptor (Homo sapiens) (UniProt Q9Y5N1); assay: Displacement of [3H]-N-alpha-Methylhistamine from human recombinant Histamine H3 receptor at 10 uM incubated for 60 mins by scintillation counting analysis relative to control
Sequence of Histamine H3 receptor (Homo sapiens) (Q9Y5N1 whole entry): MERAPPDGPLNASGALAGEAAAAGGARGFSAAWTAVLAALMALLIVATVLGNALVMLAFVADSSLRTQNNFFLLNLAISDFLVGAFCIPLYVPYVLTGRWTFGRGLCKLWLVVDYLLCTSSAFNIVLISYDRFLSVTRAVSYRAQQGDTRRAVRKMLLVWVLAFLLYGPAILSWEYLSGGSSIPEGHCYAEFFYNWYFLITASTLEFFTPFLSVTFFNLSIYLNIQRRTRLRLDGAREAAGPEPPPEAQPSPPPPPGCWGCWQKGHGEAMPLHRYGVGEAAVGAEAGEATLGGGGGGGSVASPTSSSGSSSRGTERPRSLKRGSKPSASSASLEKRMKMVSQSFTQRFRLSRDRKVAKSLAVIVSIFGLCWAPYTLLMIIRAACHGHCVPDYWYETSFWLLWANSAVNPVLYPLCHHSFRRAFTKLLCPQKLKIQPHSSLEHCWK

Rattus norvegicus [19] = species: Rattus norvegicus; assay: Displacement of [3H]-idazoxan from rat imidazoline I2 receptor at 10 uM incubated for 30 mins by scintillation counting analysis relative to control
[20] = target: Interleukin-1 receptor type 1 (Homo sapiens) (UniProt P14778); assay: Displacement of [125I]-Interleukin 1beta from human interleukin IL-1 R1 receptor at 10 uM incubated for 120 mins by scintillation counting analysis relative to control
Sequence of Interleukin-1 receptor type 1 (Homo sapiens) (P14778 whole entry): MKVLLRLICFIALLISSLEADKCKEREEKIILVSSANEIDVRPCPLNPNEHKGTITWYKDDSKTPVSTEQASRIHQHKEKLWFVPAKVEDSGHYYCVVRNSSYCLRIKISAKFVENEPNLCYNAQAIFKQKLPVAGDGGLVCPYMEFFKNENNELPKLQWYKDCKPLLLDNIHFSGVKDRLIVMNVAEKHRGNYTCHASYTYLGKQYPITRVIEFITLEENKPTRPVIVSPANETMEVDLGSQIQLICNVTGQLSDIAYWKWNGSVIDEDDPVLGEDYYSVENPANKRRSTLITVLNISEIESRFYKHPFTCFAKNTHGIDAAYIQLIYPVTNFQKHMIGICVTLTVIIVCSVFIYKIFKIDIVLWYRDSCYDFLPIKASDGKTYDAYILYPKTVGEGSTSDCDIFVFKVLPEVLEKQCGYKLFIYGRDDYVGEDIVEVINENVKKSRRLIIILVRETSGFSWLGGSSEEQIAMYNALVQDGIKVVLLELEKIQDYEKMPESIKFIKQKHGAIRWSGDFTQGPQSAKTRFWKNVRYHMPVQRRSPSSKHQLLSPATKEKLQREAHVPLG

[21] = target: Muscarinic acetylcholine receptor M1 (Homo sapiens) (UniProt P11229); assay: Displacement of [125I]pirenzepine from human recombinant M1 receptor at 10 uM after 60 mins by scintillation counting analysis relative to control
[22] = target: Muscarinic acetylcholine receptor M2 (Homo sapiens) (UniProt P08172); assay: Displacement of [3H]AF-DX 384 from human recombinant M2 receptor at 10 uM after 60 mins by scintillation counting analysis relative to control
[23] = target: Neuronal acetylcholine receptor; alpha3/beta4 (Homo sapiens) (UniProt P30926+P32297); assay: Displacement of [125I] epibatidine from human nicotinic acetylcholine receptor alpha3/beta4 at 10 uM incubated for 60 mins by scintillation counting analysis relative to control; format: protein-complex assay
[24] = target: Mu-type opioid receptor (Homo sapiens) (UniProt P35372); assay: Displacement of [3H]DAMGO from human recombinant mu receptor at 10 uM after 120 mins by scintillation counting analysis relative to control
Cricetinae = assay: Displacement of [3H]-Glyburide from hamster potassium channel at 10 uM incubated for 120 mins by scintillation counting analysis relative to control
Rattus norvegicus [25] = species: Rattus norvegicus; assay: Displacement of [3H]-Rolipram from phosphodiesterases PDE4 rolipram binding site in rat at 10 uM incubated for 60 mins by radioligand binding assay relative to control
[26] = target: 5-hydroxytryptamine receptor 2B (Homo sapiens) (UniProt P41595); assay: Displacement of [125I]+/-DOI from human recombinant 5-HT2B receptor at 10 uM after 60 mins by scintillation counting analysis relative to control
Sequence of 5-hydroxytryptamine receptor 2B (Homo sapiens) (P41595 whole entry): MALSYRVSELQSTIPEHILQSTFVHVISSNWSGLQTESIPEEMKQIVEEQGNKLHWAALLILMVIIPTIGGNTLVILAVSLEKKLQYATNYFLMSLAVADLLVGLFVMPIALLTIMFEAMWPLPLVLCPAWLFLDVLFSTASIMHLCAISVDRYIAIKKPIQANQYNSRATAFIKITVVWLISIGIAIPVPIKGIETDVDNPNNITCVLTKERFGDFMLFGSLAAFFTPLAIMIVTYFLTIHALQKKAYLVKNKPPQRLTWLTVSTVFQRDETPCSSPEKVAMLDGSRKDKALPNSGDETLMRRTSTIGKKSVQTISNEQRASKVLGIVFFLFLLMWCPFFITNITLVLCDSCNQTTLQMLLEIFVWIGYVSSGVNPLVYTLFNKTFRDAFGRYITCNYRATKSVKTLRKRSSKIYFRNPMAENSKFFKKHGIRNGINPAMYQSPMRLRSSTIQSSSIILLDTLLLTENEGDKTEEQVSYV

Rattus norvegicus [27] = species: Rattus norvegicus; assay: Displacement of [3H]-Batrachotoxinin from rat sodium channel site 2 at 10 uM incubated for 60 mins by scintillation counting analysis relative to control
[28] = target: Sodium-dependent dopamine transporter (Homo sapiens, UniProt Q01959); assay: Displacement of […] from recombinant human Dopamine transporter after 120 mins by scintillation counting analysis; format: ADME

Sequence of Adenosine receptor A1 (Homo sapiens) (P30542 whole entry): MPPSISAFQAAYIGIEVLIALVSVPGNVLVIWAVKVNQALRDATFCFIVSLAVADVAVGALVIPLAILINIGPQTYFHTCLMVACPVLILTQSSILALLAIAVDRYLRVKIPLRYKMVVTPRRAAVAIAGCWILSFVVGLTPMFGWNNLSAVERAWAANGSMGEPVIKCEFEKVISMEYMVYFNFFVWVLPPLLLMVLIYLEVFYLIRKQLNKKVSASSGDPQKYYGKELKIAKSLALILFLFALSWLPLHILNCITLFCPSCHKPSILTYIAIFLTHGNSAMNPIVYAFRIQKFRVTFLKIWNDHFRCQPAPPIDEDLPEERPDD

COc1cccc2c(N3CCN(c4ccccc4F)CC3)c(C#N)cnc12
51.3%: Activity [4]
73%: Activity ([3]; tested as the 2H-labelled form)
< 50%: inhibition [1] | inhibition [2] | inhibition [5] | inhibition [6] | inhibition [7] | inhibition [8] | inhibition [9] | inhibition [10] | inhibition [11] | inhibition (Rattus norvegicus [12]) | inhibition (Rattus norvegicus [13]) | inhibition [14] | inhibition [15] | inhibition [16] | inhibition (CHO-K1) | inhibition [17] | inhibition [18] | inhibition (Rattus norvegicus [19]) | inhibition [20] | inhibition [21] | inhibition [22] | inhibition [23] | inhibition [24] | inhibition (Cricetinae) | inhibition (Rattus norvegicus [25]) | inhibition [26] | inhibition (Rattus norvegicus [27])
430 nM: Ki [28]
85.1%: Activity [3]

COc1cc(F)cc2c(N3CCN(c4ccccc4F)CC3)c(C#N)cnc12
62.8%: Activity ([4]; tested as the 2H-labelled form)
< 50%: inhibition ([1]; tested as the 2H-labelled form) | inhibition ([2]; tested as the 2H-labelled form) | inhibition ([5]; tested as the 2H-labelled form) | inhibition ([6]; tested as the 2H-labelled form) | inhibition ([7]; tested as the 2H-labelled form) | inhibition ([8]; tested as the 2H-labelled form) | inhibition ([9]; tested as the 2H-labelled form) | inhibition ([10]; tested as the 2H-labelled form) | inhibition ([11]; tested as the 2H-labelled form) | inhibition (Rattus norvegicus [12]; tested as the 2H-labelled form) | inhibition (Rattus norvegicus [13]; tested as the 2H-labelled form) | inhibition ([14]; tested as the 2H-labelled form) | inhibition ([15]; tested as the 2H-labelled form) | inhibition ([16]; tested as the 2H-labelled form) | inhibition (CHO-K1; tested as the 2H-labelled form) | inhibition ([17]; tested as the 2H-labelled form) | inhibition ([18]; tested as the 2H-labelled form) | inhibition (Rattus norvegicus [19]; tested as the 2H-labelled form) | inhibition ([20]; tested as the 2H-labelled form) | inhibition ([21]; tested as the 2H-labelled form) | inhibition ([22]; tested as the 2H-labelled form) | inhibition ([23]; tested as the 2H-labelled form) | inhibition ([24]; tested as the 2H-labelled form) | inhibition (Cricetinae; tested as the 2H-labelled form) | inhibition (Rattus norvegicus [25]; tested as the 2H-labelled form) | inhibition ([26]; tested as the 2H-labelled form) | inhibition (Rattus norvegicus [27]; tested as the 2H-labelled form)
> 10000 nM: IC50 [28]
98%: Activity [3] | Activity ([3]; tested as the 2H-labelled form)
